Results reported in PubChem BioAssay AID2305 (GlaxoSmithKline (GSK), 2010).
pIC50: −log10 of the molar value.

Test system: P. falciparum 3D7 growth, pLDH absorbance
Test: blood-stage malaria parasite growth potency – strain 3D7, dose response (AID 2305)

Row | SMILES | pIC50
1 | O=C(O)C1CC(=O)N(c2ccc(Cl)cc2)C1 (stereo unspecified) | 6.66
2 | CCCC1(NC[C@@H](O)[C@H](Cc2ccccc2)NC(=O)c2cc(NCC)cc(N3CCCCS3(=O)=O)c2)CC1 | 5.97
3 | CC(C)CC(C)NC(=O)C1Cc2c([nH]c3ccc(F)cc23)C2(CCN(Cc3ccccc3)CC2)N1 (stereo unspecified) | 6.01
4 | COc1cc(Nc2ncc3c(C)nc(-c4cccc(Nc5ccc(CN6CCS(=O)(=O)CC6)cc5)c4)n3n2)cc(OC)c1OC | 6.06
5 | O=C(/C=C/c1ccc(Cl)c(Cl)c1)NCCCCCN1CCC(NC(=S)Nc2ccc(Cl)c(Cl)c2)CC1 | 6.28
6 | Cc1ccc(NC(=S)N2CCCN(CCCCCNC(=O)/C=C/c3ccc(Cl)c(Cl)c3)CC2)cc1Cl | 6.04
7 | COc1ccc2nccc([C@@H](O)CN3CCC(NCc4cc5cccc6c5n(c4=O)CCC6)CC3)c2c1 | 6.07
8 | COc1ccc(N2C(=O)C3C(C2=O)C2(C)c4ccccc4C3(C)c3ccccc32)c([N+](=O)[O-])c1 (stereo unspecified) | 6.14
9 | O=C(Nc1cccc(-c2cccc(-c3nc4ccc(C(F)(F)F)cc4[nH]3)c2)c1)c1csnn1 | 6.62
10 | CC(C)CCNC(=O)[C@@H]1[C@H]2C(=O)N(C3CCCCC3)C(=O)[C@H]2[C@H]2C=C[C@@H]3C(c4ccc(C(C)(C)C)cc4)=NO[C@@H]3N21 | 6.10
11 | COc1ccccc1C1CCN(CCCCNC(=O)c2ccc(NC(=O)c3ccc(Cl)cc3)cc2)CC1 | 6.62
12 | COc1cc(Nc2nccc(-c3c(-c4cccc(NC(=O)c5c(F)cccc5F)c4)nn4ncccc34)n2)cc(OC)c1OC | 7.52
13 | COc1cc(Nc2ccnc3cc(-c4ccncc4)ccc23)cc(OC)c1OC | 5.97
14 | Oc1c(CNC2CCCCC2)cc(Cl)c2ccccc12 | 6.08
15 | CCCCCCCN(Cc1ccc(OC(C)(C)C(=O)OCC)cc1)C(=O)Nc1ccc(Cl)cc1OCC | 6.09
16 | OCCN1CCN(Cc2ccc(-c3cccc(-c4nc5ccc(F)cc5[nH]4)c3)cc2)CC1 | 6.21
17 | CN(C)CCCNc1ccnc2cc(Cl)ccc12 | 6.55
18 | COc1cc(NC(=O)/C=C/c2ccccc2OC(F)(F)F)cc(OCCN2CCN(CCN3CCOCC3)CC2)c1 | 6.80
19 | CN(C)Cc1ccc(-c2ccc3c(Nc4ccc(Cl)cc4F)ccnc3c2)o1 | 6.62
20 | O=C(Nc1ccc(C(=O)Oc2cccc3ccccc23)cc1)N[C@@H](Cc1ccc(O)cc1)C(=O)NC1CCN(Cc2ccc(O)cc2)C1 (stereo partly specified) | 6.04
21 | O=C1Nc2cccc3c2C1(CCCCN1CCC(c2c(-c4ccc(F)cc4)[nH]c4ccccc24)CC1)CCC3 (stereo unspecified) | 5.92
22 | CNC(=O)c1cc(Nc2nnc(-c3ccc(C)c(S(=O)(=O)NC4CCCCC4)c3)c3ccccc23)ccc1OC | 6.05
23 | CCOC(=O)c1sc(C(C)Nc2ccccc2)nc1-c1ccccc1 (stereo unspecified) | 6.48
24 | COc1ccc(NC(=O)CCNc2cc(C)nc(NCCc3ccccc3)n2)cc1 | 5.94

Row | SMILES | pIC50
25 | COc1ccc(-c2cccc(NC(=O)c3cccc(Cl)c3)c2)cc1CN1CCC(O)CC1 | 6.10
26 | CN1CCN(c2ccc(Nc3ncc(Cl)c(Nc4cccnc4C(N)=O)n3)cc2)CC1 | 6.82
27 | COc1cc(OC)c2c(C)cc(NCCCN3CCOCC3)nc2c1 | 5.97
28 | Cc1cc(=O)[nH]c(/N=C(/N)NOCCCc2ccccc2)n1 | 6.12
29 | O=C(/C=C/c1ccc(Cl)c(Cl)c1)N1CCC(CCCN2CCC(c3c[nH]c4ccccc34)CC2)CC1 | 6.15
30 | O=C1CN(C(=O)CCC2CCCC2)C(c2ccc(F)cc2)c2cc(F)ccc2N1 (stereo unspecified) | 6.77
31 | OCCN1CCN(C(=S)Nc2ccccc2)CC1 | 6.03
32 | COc1cc(Cc2cnc(N)nc2N)ccc1OCc1ccc(-c2csnn2)cc1 | 6.20
33 | O=C(NC1CC1)c1cnc(N2CCC(Oc3ccc(Cl)cc3)CC2)c(Cl)c1 | 5.96
34 | Cc1cccc2[nH]c(-c3cccc(-c4cccc(NC(=O)c5ccc(C(N)=O)cc5)c4)c3)nc12 | 6.49
35 | O=C(c1ccc(F)c2ccccc12)N1CCc2cc3nccc(N4CCN5CCC[C@H]5C4)c3cc21 | 6.00
36 | Cc1cccc2[nH]c(-c3cccc(-c4cccc(NC(=O)C(C)CN5CCN(C)CC5)c4)c3)nc12 (stereo unspecified) | 6.27
37 | O=C(Nc1ccc(Cl)c(C(F)(F)F)c1)c1ccc(C(=O)Nc2ccc(Cl)c(C(F)(F)F)c2)cc1 | 6.00
38 | CCOc1ccc(C2CCN(CCCCNC(=O)c3ccc(NC(=O)c4ccc(Cl)cc4)cc3)CC2)c(CC)c1 | 6.10
39 | CC(C)(C)c1ccc(S(=O)(=O)Nc2ccccc2N2CCOCC2)cc1 | 6.17
40 | COc1cccc(CNC[C@@H](O)[C@H](Cc2ccccc2)NC(=O)c2cc3c4c(c2)c(C(C)C)cn4CCS(=O)(=O)N3C)c1 | 6.82
41 | COc1c(C=NNc2nc(Nc3ccccc3)nc(Nc3ccccc3)n2)ccc(Br)c1O | 6.14
42 | O=C(/C=C/c1ccc(Cl)c(Cl)c1)NCCCCCN1CCC(NC(=O)Nc2ccc(F)c(Cl)c2)CC1 | 6.21
43 | Nc1c2nc(-c3c(F)cccc3Cl)[nH]c(=O)c2nc(=O)n1-c1ccccc1 | 6.17
44 | COc1ccc2nccc(N3CCC(NCc4ccc5c(n4)NC(=O)CS5)CC3)c2n1 | 6.07
45 | O=C(NC1CCN(Cc2ccccc2O)C1)c1ccc(-c2ccccc2)cc1 (stereo unspecified) | 6.08
46 | CCn1c(-c2nonc2N)nc2c(-c3cccc(NC(=O)Nc4cccc(Cl)c4)c3)ncc(OCCCN)c21 | 6.03
47 | CN1CCCC(CN2CCN(Cc3cccc(-c4csc(-c5nc6ccccc6[nH]5)c4)c3)CC2)C1 (stereo unspecified) | 6.39
48 | CC(CO)(CO)NCc1cc2ccc3ccsc3c2c2ccccc12 | 6.64

Row | SMILES | pIC50
49 | CN1CCN(CCc2ccc(N=Cc3c(=O)[nH]c4ccc5[nH]cccc5c34)cc2)CC1 | 6.48
50 | Cc1nnc2c(N(C(=O)NCCc3ccccc3)C(=O)NCCc3ccccc3)cc3cc(Cl)ccc3n12 | 6.02
51 | CCCN1CCN(c2cc(S(=O)(=O)Nc3ccc(C(=O)NCc4cccc(C(F)(F)F)c4)cc3)ccc2OC)CC1 | 6.00
52 | O=C(NCCCCN1CCC(c2ccc3c(c2OCCO)CCCC3)CC1)c1ccc(-c2ccc(C(F)(F)F)cc2)cc1 | 6.07
53 | COc1ccc(CCNC(C)Cc2ccc(C(=O)Nc3ccc(CC(C)NCCc4cccc(Cl)c4)cc3)cc2)cc1 (stereo unspecified) | 6.60
54 | Clc1ccc(CNCCCCCCNCc2ccc(Cl)cc2)cc1 | 6.07
55 | O=C(NCCN1CCCC1)c1cccc(Nc2nccc(Nc3ccc(Oc4ccccc4)cc3)n2)c1 | 6.19
56 | CC(C)NCC(=O)Nc1cccc(C(=O)Nc2cccc(C(F)(F)F)c2)c1 | 6.57
57 | N#Cc1cccc(C(=O)Nc2cccc(-c3ccc(C(=O)NCCCN4CCOCC4)cc3)c2)c1 | 6.12
58 | CN1C(=CC(=O)NC(=O)c2ccccc2)C(C)(C)c2ccccc21 | 6.19
59 | CCCCCCCNCCNc1cc(C)nc2ccccc12 | 6.41
60 | CCN(CCCN1CCCCC1)c1cc(C)nc(Nc2ccc(Oc3ccccc3)cc2)n1 | 6.52
61 | O=c1c2ccccc2[nH]c2cc(Cl)ccc12 | 6.06
62 | Oc1ccc(Cl)cc1CN1CCCC(COC(c2ccc(F)cc2)c2ccc(F)cc2)C1 (stereo unspecified) | 6.17
63 | FC(F)(F)c1ccc2nccc(NN=CC=Cc3ccccc3)c2c1 | 5.99
64 | NC(=O)C1Cc2ccccc2CN1CC(=O)Nc1ccccc1Sc1ccccc1 (stereo unspecified) | 7.15
65 | COc1ccc(N2CCN(CCCCNC(=O)c3ccc(NC(=O)c4ccc(C(F)(F)F)cc4)cc3)CC2)c(OC)c1 | 6.23
66 | CCOC(=O)c1[nH]c(-c2cccnc2)nc1NC(=S)NCc1ccccc1 | 6.15
67 | COc1ccc(C[C@@H](N)C(=O)N[C@H]2[C@@H](O)[C@H](n3cnc4c(N(C)C)ncnc43)O[C@@H]2CO)cc1 | 6.77
68 | CC(=O)c1ccc2nc[nH]c(=O)c2c1 | 6.14
69 | CO[C@@H]1C[C@@H](C(=O)Nc2ccccc2)N(c2ccc(C#N)c3ccccc23)C1 | 6.04
70 | CC(C)c1ccc(CN2CCCCC(NC(=O)c3cc(-c4cccc(F)c4)cs3)C2)cc1 (stereo unspecified) | 6.03
71 | COC(=O)CN(C(=O)/C=C/c1ccc(Cl)c(Cl)c1)C1CCC(CN2CCC(c3c[nH]c4ccccc34)CC2)CC1 (stereo unspecified) | 6.29
72 | COc1cccc2cc(C(=O)N[C@@H](CC(C)C)C(=O)N[C@H](/C=N/NC(=O)OC(C)(C)C)CC(C)C)oc12 | 6.05

Row | SMILES | pIC50
73 | Cc1cc(NC(=O)CCN2CCN(c3cccc(Cl)c3Cl)CC2)ccc1N1CCN(C(C)C)CC1 | 6.07
74 | O=C(c1csc(-c2cccnc2)n1)N1CCc2cc3nccc(N4CCN5CCC[C@H]5C4)c3cc21 | 6.15
75 | Cc1cccc(-c2nn(-c3ccccc3)c3[nH]c(=O)c(CN4CCSCC4)cc23)c1 | 6.00
76 | CCCCCCOc1ccc(C(=O)NCCCC2CCCN(CCCCCNC(=O)C=Cc3ccc(Cl)c(Cl)c3)C2)cc1 (stereo unspecified) | 6.15
77 | O=C(NCC1CCC(C(=O)NCCc2ccc(Cl)c(Cl)c2)CC1)c1ccc(O)c(-c2ccc(Cl)c(Cl)c2)c1 (stereo unspecified) | 6.05
78 | c1ccc(CCNCc2cccc(-c3ccc(CNc4ccc5ncccc5c4)cc3)c2)cc1 | 6.09
79 | O=C(N[C@H]1CCN(Cc2ccc(OCCCN3CCCCC3)cc2)C1)c1cc(Cl)cc(Cl)c1 | 6.21
80 | Cc1cc(F)ccc1[C@H]1CNCCN1C(=O)N(C)C(C)(C)c1cc(C(F)(F)F)cc(C(F)(F)F)c1 | 6.23
81 | O=C(/C=C/c1ccc(Cl)c(Cl)c1)NCCCCCCN1CCN(C(=O)Nc2cc(F)cc(F)c2)CC1 | 5.97
82 | Oc1ccc(CCNc2nc(NCc3ccccc3-c3ccccc3)nc(N3CCCNCC3)n2)cc1 | 6.06
83 | O=C(C=Cc1ccc(Cl)c(Cl)c1)NCCCCCN1CCC(CCNC(=O)/C=C/c2ccccc2)CC1 | 6.11
84 | COc1ccc(NC(=O)/C=C/c2ccccc2Cl)cc1OCCN1CCC(NC2CC2)CC1 | 6.08
85 | COC(=O)C(C)NCC(=O)c1ccccc1 (stereo unspecified) | 6.92
86 | N#Cc1ccc(NC(=NCc2ccc(Cl)cc2Cl)Nc2cccc(Cl)c2Cl)c(O)c1 | 5.95
87 | O=C(NC1CCCCCC1)C1CCCN(C(=O)c2ccc(O)c(-c3ccc(Cl)c(Cl)c3)c2)C1 (stereo unspecified) | 6.12
88 | COc1cc2c(cc1C(F)(F)F)N(C(=O)Nc1cc(-c3ccncc3)cc(-c3cccnc3)c1)CC2 | 6.21
89 | c1cc(CN2CCCCC2)cc(OCCCNc2ccnc3ccccc23)c1 | 6.37
90 | CCCCN(CCCC)CCNC(=O)c1ccc(-c2nc3ccc(Cl)cc3[nH]2)c(OCC)c1 | 6.24
91 | N#Cc1ccc(CN2CCC(Oc3ccc(NC(=O)c4ccsc4)cc3Cl)C2)cc1 (stereo unspecified) | 6.17
92 | C=C[C@H]1CN2CC[C@H]1C[C@H]2[C@H](O)c1cc(/C=C/c2ccc(F)cc2)nc2ccc(OC)cc12 | 7.52
93 | CC(C)(C)c1ccccc1OC(=O)c1ccccc1 | 6.13
94 | Nc1ncc(-c2ccc(Cl)c(Cl)c2)c(N)n1 | 6.14
95 | CCOC(=O)C1=C(C)NC(C)=C(C(=O)OCC)C1(C(=O)OCc1ccccc1)c1cccc(C(F)(F)F)c1 | 5.91
96 | Cc1ccc2c(O)c([N+](=O)[O-])c(=O)[nH]c2c1 | 6.38
